# Results published in patent publication US20070107083A1, “Method for regulating plant growth” (priority 2004, published 2007).
# “Also recorded” adds a separate entry of the source.
# Assays:
# [1] = tested on: A. thaliana high DOGT1-expression line (1319/2); test: Phenotype of DOGT1-overexpressing seedlings on brassinosteroid media; format: in vivo, Arabidopsis thaliana; details: 10 day old seedlings
# Procedure: (§1) 10 day old seedlings were transferred to MS media resp. MS media containing 1.0 μM BL and incubated for another 10 days before phenotypic analysis. […] Right: Seedlings of lines expressing DOGT1 grown on MS media show a BR-deficient phenotype (short hypocotyls and smaller leaves with shorter petioles compared to wild-type).
# (§2) Plant material and growth conditions. A. thaliana experiments were conducted with the wild-type ecotype Columbia-0 (Col-0). For propagation seeds were sterilized, plated on standard MS growth medium (Murashige et al., Plant Physiology 15 (1962), 473-497) supplemented with 1.0% sucrose and 1.0% phytagar (Life Technologies) and subjected to a 2 day dark treatment at 4° C. to synchronize germination. The seedlings were grown for 2 weeks in a controlled environment of 16 h/8 h light-dark cycle (140 μmol m^−2 sec^−1 white light) at 22° C. before they were transferred to soil and grown at 20° C. and 55% humidity under continuous white light.
# (§3) The effect of externally applied epi-brassinolide (epi-BL) was determined by transferring 10 day old seedlings of wild-type and a high DOGT1-expression line (1319/2) to media containing different concentrations of the brassinosteroid. The plants were incubated for 10 days before the phenotype was analysed.
# [2] = tested on: A. thaliana wild-type Col-0; test: Phenotype of wild-type seedlings on brassinosteroid media; format: in vivo, Arabidopsis thaliana; details: 10 day old seedlings
# Procedure: as §1, §2, §3
# [3] = tested on: dwarf mutants with defects in BR biosynthesis; details: application of brassinolide; cited from earlier work
# [4] = tested on: Saccharomyces cerevisiae strain YZGA452; format: cell-based
# [5] = tested on: Wild-type Saccharomyces cerevisiae; format: cell-based
# [6] = tested on: DOGT1 promoter (PDOGT1-GUS); format: in vivo, Arabidopsis thaliana; details: seedlings; DON 5 ppm for 4 h, ACC 2 μM for 1 h, SA 200 μM for 12 h, JA 50 μM for 1 h
# [7] = tested on: DOGT1 (UGT73C5) mRNA; test: Semiquantitative RT-PCR of DOGT1 mRNA after compound treatment; format: in vivo, Arabidopsis thaliana; details: for DOGT1 mRNA expression (RT-PCR): seedlings in liquid MS, 5 ppm DON, 200 μM SA, 2 μM ACC or 50 μM JA
# [8] = tested on: UGT73C4 mRNA; test: Semiquantitative RT-PCR of 73C4 mRNA after compound treatment; format: in vivo, Arabidopsis thaliana; details: seedlings in liquid MS; 5 ppm DON, 200 μM SA
# [9] = tested on: UGT73C6 mRNA; test: Semiquantitative RT-PCR of 73C6 mRNA after compound treatment; format: in vivo, Arabidopsis thaliana; details: seedlings in liquid MS, 5 ppm DON, 200 μM SA, 2 μM ACC or 50 μM JA
# [10] = MS media containing 1.0 μM BL, another 10 days
# [11] = media with different concentrations, 10 days
SMILES,PDOGT1-GUS expression [6],DOGT1 mRNA expression (RT-PCR) [7],73C4 mRNA expression (RT-PCR) [8],73C6 mRNA expression (RT-PCR) [9],other results
"CC(C)[C@H](C)[C@@H](O)[C@H](O)[C@@H](C)[C@H]1CC[C@H]2[C@@H]3COC(=O)[C@H]4C[C@H](O)[C@H](O)C[C@]4(C)[C@H]3CC[C@]12C [BL, Brassinolide]",,,,,"phenotype of DOGT1-expressing seedlings [1, 10]: restores wild-type growth; phenotype of wild-type seedlings [2, 10]: typical growth response; growth of dwarf mutants with defects in BR biosynthesis [3]: restores normal growth"
"CC1=C[C@H]2O[C@@H]3[C@H](O)C[C@](C)([C@@]2(CO)[C@H](O)C1=O)[C@]31CO1 [DON, deoxynivalenol]",induce PDOGT1-GUS expression,DON inducible expression,DON inducible,stronger induction of expression,"growth of yeast transformed with the empty library plasmid ([4]; 180 ppm DON in media): completely inhibit growth; sensitivity of strain YZGA452 ([4]; strain deficient in four ABC transporters): hypersensitive; resistance of wild-type yeast [5]: highly resistant; time of peak of transcript amounts ([7]; incubation with 5 ppm DON, stated for DOGT1, 73C4 and 73C6 transcripts): 4 h"
"CC/C=C\C[C@H]1C(=O)CC[C@@H]1CC(=O)O [JA, jasmonic acid]",No induction of expression,responded weekly with elevated mRNA levels,,responded weekly with elevated mRNA levels,DOGT1 mRNA expression (RT-PCR) ([7]; listed as Jasmonic acid): weak induction of expression; 73C6 mRNA expression (RT-PCR) ([9]; listed as Jasmonic acid): weak induction of expression
"O=C(O)c1ccccc1O [SA, salicylic acid]",No induction of expression,rather weakly; also recorded: responded weekly with elevated mRNA levels,rather weakly,rather weakly; also recorded: responded weekly with elevated mRNA levels,
"CC(C)[C@@H](C)[C@@H](O)[C@H](O)[C@@H](C)[C@H]1CC[C@H]2[C@@H]3COC(=O)[C@H]4C[C@H](O)[C@H](O)C[C@]4(C)[C@H]3CC[C@]12C [epi-BL, epi-brassinolide]",,,,,"phenotype of high DOGT1-expression line 1319/2 [1, 11]: restored to wild-type phenotype; phenotype of Col-0 [2, 11]: typical growth response"
